The subject of data set [1] is stress-induced hyperthermia in mice. Kind of data set: stress-induced hyperthermia in mice. The data set is classed as in vivo. The settings on record: reduced from 0.92±0.09° C., p<0.001. On the procedure:
A. Lecci at al., Psychopharmacol. 101, 255-261]. At doses of about 0.1 to about 30 mg/kg p.o., the agents of the invention reverse the stress-induced hyperthermia.

What is called melting point is the temperature of the solid-liquid transition. In turn, `CC(=O)N[C@@H]1CCC[C@@](O)(C#Cc2cccc(C)c2)C1` (racemic) [Example 6m, (±)-(1RS,3SR)-N-(3-hydroxy-3-m-tolylethynyl-cyclohexyl)-acetamide] came in with a melting point of 152 to 155 °C.

Turning to `CCOC(=O)N1CC[C@@H]2[C@H]1CCC[C@@]2(O)C#Cc1cccc(C)c1` [Example 1a, (−)-(3aR,4S,7aR)-4-Hydroxy-4-m-tolylethynyl-octahydro-indole-1-carboxylic acid ethyl ester], the melting point lay in the range of 118 to 121 °C.

For the compound `CCOC(=O)N[C@@H]1CCC[C@@](O)(C#Cc2cccc(C)c2)C1` (racemic) [Example 6o, (±)-(1RS,3SR)-(3-Hydroxy-3-m-tolylethynyl-cyclohexyl)-carbamic acid ethyl ester], the melting point lay within 106 to 107 °C.

For the compound `COC(=O)N1CC[C@@H]2[C@H]1CCC[C@@]2(O)C#Cc1cccc(C)c1` [Example 1, (−)-(3aR,4S,7aR)-4-Hydroxy-4-m-tolylethynyl-octahydro-indole-1-carboxylic acid methyl ester], the values for the stress-induced hyperthermia in data set [1] (0.1 mg/kg p.o.), in data set [1] (1 mg/kg p.o.) and in data set [1] (10 mg/kg p.o.) were 0.56±0.06 °C, 0.42±0.06 °C and 0.18±0.05 °C, respectively.

For the compound `Cc1cccc(C#C[C@]2(O)CCC[C@@H]3[C@H]2CCN3C(=O)c2ccco2)c1` [Example 1b, (−)-(3aR,4S,7aR)-Furan-2-yl-(4-hydroxy-4-m-tolylethynyl-octahydro-indol-1-yl)-methanone], the melting point was in the range of 195.5 to 196.5 °C.

`CCOC(=O)N[C@@H]1CCC[C@@](O)(C#Cc2cccc(F)c2)C1` (racemic) [Example 6u, (±)-(1RS,3SR)-[3-(3-Fluoro-phenylethynyl)-3-hydroxy-cyclohexyl]-carbamic acid ethyl ester] yielded a melting point of 121 to 123 °C.

The compound `CCOC(=O)N1CC[C@@H]2[C@H]1CCC[C@@]2(O)C#Cc1ccc(F)cc1` (racemic) [Example 1i, (±)-(3aRS,4SR,7aRS)-4-(4-Fluoro-phenylethynyl)-4-hydroxy-octahydro-indole-1-carboxylic acid ethyl ester] registered a melting point of 115 to 116 °C.

The values are drawn from patent publication US8536229B2, “Acetylene derivatives having MGluR 5 antagonistic activity” (Novartis AG, priority 2001, dated 2013).
